Blank lines part the entries; values can stand above or below the molecule they belong to.
Legend:
[1] = Vapor pressure; type: physicochemical; settings: at 20° C.
[2] = system: fish; assay: Fish mortality (LC50); type: in vivo
[3] = system: algae; assay: Algae growth inhibition (EC50); type: cell-based
[4] = Saturated vapor concentration; type: physicochemical
[5] = Dermal irritation
[6] = Eye irritation categorisation; settings: hazard code
[7] = Sensitization classification

Compound: CC(CC(C)C)=NO [MIBKO, methyl isobutyl ketoxime]
vapor pressure [1]: about 0.13 hPa

vapor pressure [1]: less than 0.975 mm Hg
Compound: C/C(=N/O)C(C)C [3-methyl-2-butanone oxime]

Compound: CCC(C)=NO [MEKO, methyl ethyl ketoxime, reference compound]
lethal concentration of 50% mortality (LC50) for fish [2]: 48 ppm | effective concentration of 50% growth inhabitation (EC50) for algae [3]: 7 ppm | vapor pressure [1]: 2.00 mm Hg | saturated vapor concentration [4]: 1350 ppm

Compound: CCC/C(C)=N\O [2-PO, 2-pentanone oxime]
lethal concentration of 50% mortality (LC50) for fish [2]: greater than 100 ppm | dermal irritation [5]: no irritation | eye irritation category [6]: serious eye irritation (code H319) | effective concentration of 50% growth inhabitation (EC50) for algae [3]: 88 ppm | vapor pressure [1]: about 1.60 mm Hg | vapor pressure ([1]; listed as 2-pentanone oxime): about 2.14 hPa | sensitizer classification [7]: not a sensistizer | saturated vapor concentration [4]: 300 ppm | saturated vapor concentration relative to that of MEKO ([4]; 2-PO versus MEKO): less than 25%

Reference: patent publication US20230265296A1, “COATING COMPOSITION INCLUDING ALKYL OXIMES” (AdvanSix Resins & Chemicals LLC, priority 2015, published 2023)
